Source: US8247211B2, “Glycopeptide antibiotics” (American Cyanamid Company, priority 2001, dated 2012)
Values after ≈ are worked out from the molar mass of the structure shown.

How the values were obtained:
Assay in all cases: In vitro antibacterial evaluation: minimum inhibitory concentration (MIC), broth dilution method
Format in all cases: cell-based
Staphylococcus sp. = details: for MIC Coagulase Negative Staphylococcus (GC 4537): strain GC 4537; for MIC Coagulase Negative Staphylococcus (GC 4538): strain GC 4538; for MIC Staphylococcus aureus-SMITH (GC 4536): strain SMITH GC 4536
Method: (§1) The minimum inhibitory concentration (MIC), the lowest concentration of the antibiotic which inhibits growth of the test organism, is determined by the broth dilution method using Muller-Hinton II […] (Baltimore Biological Laboratories) following the recommendations of the National Committee for Clinical Laboratory Standards [Methods for dilution antimicrobial susceptibility tests for bacteria that grow aerobically, approved standard M7-A2, National Committee for Clinical Laboratory Standards, Villanova, Pa].
(§2) An inoculum level of 5×10^5 CFU/mL, and a range of antibiotic concentrations (64-0.06 μg/mL) is used. […] The test organisms include a spectrum of Gram-positive bacteria comprised of Staphylococcus sp., Streptococcus sp. and Enterococcus sp. These organisms include recent clinical isolates that are resistant to methicillin, penicillin and/or vancomycin.

Enterococcus sp. = details: for MIC Enterococcus faecalis (ATCC 29212): strain ATCC 29212; for MIC Enterococcus faecalis (GC 4552): strain GC 4552
Method: as §1, §2

Escherichia coli = details: for MIC Escherichia coli (GC 4559): strain GC 4559
Method: as §1, §2

[1] = Coagulase Negative Staphylococcus (GC 4547), 18 hours at 35° C.
[2] = Coagulase Negative Staphylococcus (GC 4547), broth dilution, 18 hours at 35° C.
[3] = broth dilution, 18 hours at 35° C.
[4] = Staphylococcus aureus (ATCC 29213), 18 hours at 35° C.
[5] = Staphylococcus aureus (ATCC 29213), broth dilution, 18 hours at 35° C.
[6] = Staphylococcus aureus (GC 1131), 18 hours at 35° C.
[7] = Staphylococcus aureus (GC 1131), broth dilution, 18 hours at 35° C.

## CC(C)CC(=O)OCC1OC(OC2C(CO)OC(Oc3ccc(CC4NC(=O)C(Cc5ccccc5)NC(=O)CNC(=O)C(CO)NC(=O)C(C(O)C5CNC(=N)N5C5OC(CO)C(O)C(O)C5O)NC(=O)C(C(O)C5CNC(=N)N5)NC4=O)cc3)C(O)C2O)C(O)C(O)C1O (stereo not shown) [Example 283c, Cyclo[glycylphenylalanyl-O-[4-O-[6-O-(3-methylbutanoyl)-hexopyranosyl]hexopyranosyl]tyrosyl-3-(2-iminoimidazolidin-4-yl)seryl-3-(3-hexopyranosyl-2-iminoimidazolidin-4-yl)serylseryl]]
Staphylococcus sp.; [1]
  MIC Coagulase Negative Staphylococcus (GC 4547): 16 µg/mL (≈ 11.7 µM)
Staphylococcus sp.; [2]
  MIC Coagulase Negative Staphylococcus (GC 4547): 16 µg/mL (≈ 11.7 µM)
Staphylococcus sp.; 18 hours at 35° C.
  MIC Coagulase Negative Staphylococcus (GC 4548): 8 µg/mL (≈ 5.86 µM)
  MIC Coagulase Negative Staphylococcus (GC 4549): 16 µg/mL (≈ 11.7 µM)
  MIC Coagulase Negative Staphylococcus (GC 4551): 32 µg/mL (≈ 23.4 µM)
  MIC Staphylococcus aureus (GC 3051): 32 µg/mL (≈ 23.4 µM)
  MIC Staphylococcus aureus (GC 3053): 64 µg/mL (≈ 46.9 µM)
  MIC Staphylococcus aureus (GC 4541): 32 µg/mL (≈ 23.4 µM)
  MIC Staphylococcus aureus (GC 4542): 32 µg/mL (≈ 23.4 µM)
  MIC Staphylococcus aureus (GC 4544): 32 µg/mL (≈ 23.4 µM)
  MIC Staphylococcus aureus (GC 4545): 16 µg/mL (≈ 11.7 µM)
  MIC Staphylococcus aureus-SMITH (GC 4543): 16 µg/mL (≈ 11.7 µM)
  MIC Staphylococcus haemolyticus (GC 4546): 16 µg/mL (≈ 11.7 µM)
Staphylococcus sp.; [3]
  MIC Coagulase Negative Staphylococcus (GC 4548): 8 µg/mL (≈ 5.86 µM)
  MIC Coagulase Negative Staphylococcus (GC 4549): 16 µg/mL (≈ 11.7 µM)
  MIC Coagulase Negative Staphylococcus (GC 4551): 32 µg/mL (≈ 23.4 µM)
  MIC Staphylococcus aureus (GC 3051): 32 µg/mL (≈ 23.4 µM)
  MIC Staphylococcus aureus (GC 3053): 64 µg/mL (≈ 46.9 µM)
  MIC Staphylococcus aureus (GC 4541): 32 µg/mL (≈ 23.4 µM)
  MIC Staphylococcus aureus (GC 4542): 32 µg/mL (≈ 23.4 µM)
  MIC Staphylococcus aureus (GC 4544): 32 µg/mL (≈ 23.4 µM)
  MIC Staphylococcus aureus (GC 4545): 16 µg/mL (≈ 11.7 µM)
  MIC Staphylococcus aureus-SMITH (GC 4543): 16 µg/mL (≈ 11.7 µM)
  MIC Staphylococcus haemolyticus (GC 4546): 16 µg/mL (≈ 11.7 µM)
Staphylococcus sp.; [4]
  MIC Staphylococcus aureus (ATCC 29213): 32 µg/mL (≈ 23.4 µM)
Staphylococcus sp.; [5]
  MIC Staphylococcus aureus (ATCC 29213): 32 µg/mL (≈ 23.4 µM)
Staphylococcus sp.; [6]
  MIC Staphylococcus aureus (GC 1131): 32 µg/mL (≈ 23.4 µM)
Staphylococcus sp.; [7]
  MIC Staphylococcus aureus (GC 1131): 32 µg/mL (≈ 23.4 µM)
Enterococcus sp.
  MIC Enterococcus faecium (GC 4557): 16 µg/mL (≈ 11.7 µM)
Escherichia coli; Escherichia coli (GC 4560)
  MIC Escherichia coli (GC 4560): 8 µg/mL (≈ 5.86 µM)

## CC(C)C(=O)OCC1OC(OC2C(CO)OC(Oc3ccc(CC4NC(=O)C(Cc5ccccc5)NC(=O)CNC(=O)C(CO)NC(=O)C(C(O)C5CNC(=N)N5C5OC(CO)C(O)C(O)C5O)NC(=O)C(C(O)C5CNC(=N)N5)NC4=O)cc3)C(O)C2O)C(O)C(O)C1O (stereo not shown) [Example 283a]
Staphylococcus sp.; [1]
  MIC Coagulase Negative Staphylococcus (GC 4547): 64 µg/mL (≈ 47.4 µM)
Staphylococcus sp.; [2]
  MIC Coagulase Negative Staphylococcus (GC 4547): 64 µg/mL (≈ 47.4 µM)
Staphylococcus sp.; 18 hours at 35° C.
  MIC Coagulase Negative Staphylococcus (GC 4548): 64 µg/mL (≈ 47.4 µM)
  MIC Coagulase Negative Staphylococcus (GC 4549): 32 µg/mL (≈ 23.7 µM)
  MIC Coagulase Negative Staphylococcus (GC 4551): 64 µg/mL (≈ 47.4 µM)
  MIC Staphylococcus aureus (GC 3051): 64 µg/mL (≈ 47.4 µM)
  MIC Staphylococcus aureus (GC 4541): 64 µg/mL (≈ 47.4 µM)
  MIC Staphylococcus aureus (GC 4542): 64 µg/mL (≈ 47.4 µM)
  MIC Staphylococcus aureus (GC 4544): 64 µg/mL (≈ 47.4 µM)
  MIC Staphylococcus aureus (GC 4545): 64 µg/mL (≈ 47.4 µM)
  MIC Staphylococcus aureus-SMITH (GC 4543): 64 µg/mL (≈ 47.4 µM)
  MIC Staphylococcus haemolyticus (GC 4546): 64 µg/mL (≈ 47.4 µM)
Staphylococcus sp.; [3]
  MIC Coagulase Negative Staphylococcus (GC 4548): 64 µg/mL (≈ 47.4 µM)
  MIC Coagulase Negative Staphylococcus (GC 4549): 32 µg/mL (≈ 23.7 µM)
  MIC Coagulase Negative Staphylococcus (GC 4551): 64 µg/mL (≈ 47.4 µM)
  MIC Staphylococcus aureus (GC 3051): 64 µg/mL (≈ 47.4 µM)
  MIC Staphylococcus aureus (GC 4541): 64 µg/mL (≈ 47.4 µM)
  MIC Staphylococcus aureus (GC 4542): 64 µg/mL (≈ 47.4 µM)
  MIC Staphylococcus aureus (GC 4544): 64 µg/mL (≈ 47.4 µM)
  MIC Staphylococcus aureus (GC 4545): 64 µg/mL (≈ 47.4 µM)
  MIC Staphylococcus aureus-SMITH (GC 4543): 64 µg/mL (≈ 47.4 µM)
  MIC Staphylococcus haemolyticus (GC 4546): 64 µg/mL (≈ 47.4 µM)
Staphylococcus sp.; [4]
  MIC Staphylococcus aureus (ATCC 29213): 64 µg/mL (≈ 47.4 µM)
Staphylococcus sp.; [5]
  MIC Staphylococcus aureus (ATCC 29213): 64 µg/mL (≈ 47.4 µM)
Staphylococcus sp.; [6]
  MIC Staphylococcus aureus (GC 1131): 64 µg/mL (≈ 47.4 µM)
Staphylococcus sp.; [7]
  MIC Staphylococcus aureus (GC 1131): 64 µg/mL (≈ 47.4 µM)
Enterococcus sp.
  MIC Enterococcus faecium (GC 4557): 64 µg/mL (≈ 47.4 µM)
Escherichia coli; Escherichia coli (GC 4560)
  MIC Escherichia coli (GC 4560): 32 µg/mL (≈ 23.7 µM)

## CCCCCCC(=O)OCC1OC(Oc2ccc(CC3NC(=O)C(C(C)c4ccccc4)NC(=O)CNC(=O)C(CO)NC(=O)C(C(O)C4CNC(=N)N4C4OC(CO)C(O)C(O)C4O)NC(=O)C(C(O)C4CNC(=N)N4)NC3=O)cc2)C(O)C(O)C1OC1OC(CO)C(O)C(O)C1O (stereo not drawn) [Example 97a, Cyclo[glycyl-β-methylphenylalanyl-O-(6-O-heptanoyl-4-O-hexopyranosylhexopyranosyl)-tyrosyl-3-(2-iminoimidazolidin-4-yl)seryl-3-(3-hexopyranosyl-2-iminoimidazolidin-4-yl)-serylseryl]]
Staphylococcus sp.; [3]
  MIC Staphylococcus aureus (ATCC 29213): 1 µg/mL (≈ 0.711 µM)
  MIC Staphylococcus aureus (GC 1131): 2 µg/mL (≈ 1.42 µM)
  MIC Staphylococcus aureus (GC 4535): 2 µg/mL (≈ 1.42 µM)
  MIC Staphylococcus aureus SMITH (GC 4536): 0.5 µg/mL (≈ 0.355 µM)
  MIC Coagulase Negative Staphylococcus (GC 4537): 4 µg/mL (≈ 2.84 µM)
  MIC Coagulase Negative Staphylococcus (GC 4538): 2 µg/mL (≈ 1.42 µM)
  MIC Staphylococcus aureus-SMITH (GC 4536): 0.5 µg/mL (≈ 0.355 µM)
Staphylococcus sp.
  MIC Coagulase Negative Staphylococcus (GC 4537): 4 µg/mL (≈ 2.84 µM)
  MIC Coagulase Negative Staphylococcus (GC 4538): 2 µg/mL (≈ 1.42 µM)
Staphylococcus sp.; strain GC 4547
  MIC Coagulase Negative Staphylococcus (GC 4547): 2 µg/mL (≈ 1.42 µM)
Staphylococcus sp.; strain GC 4547, broth dilution, 18 hours at 35° C.
  MIC Coagulase Negative Staphylococcus (GC 4547): 2 µg/mL (≈ 1.42 µM)
Enterococcus sp.
  MIC Enterococcus faecalis (ATCC 29212): 8 µg/mL (≈ 5.68 µM)
  MIC Enterococcus faecalis (GC 4552): 16 µg/mL (≈ 11.4 µM)
Enterococcus sp.; strain GC 2242
  MIC Enterococcus faecalis (GC 2242): 4 µg/mL (≈ 2.84 µM)
Escherichia coli
  MIC Escherichia coli (GC 4559): >64 µg/mL
Escherichia coli; strain GC 4560
  MIC Escherichia coli (GC 4560): 1 µg/mL (≈ 0.711 µM)

## CCCCCC(=O)OCC1OC(N2C(=N)NCC2C(O)C2NC(=O)C(C(O)C3CNC(=N)N3)NC(=O)C(Cc3ccc(OC4OC(CO)C(OC5OC(CO)C(O)C(O)C5O)C(O)C4O)cc3)NC(=O)C(C(C)c3ccccc3)NC(=O)CNC(=O)C(CO)NC2=O)C(O)C(O)C1O (stereo not shown) [Example 95]
Staphylococcus sp.; [3]
  MIC Staphylococcus aureus (ATCC 29213): >64 µg/mL
  MIC Staphylococcus aureus (GC 1131): >64 µg/mL
  MIC Staphylococcus aureus (GC 4535): >64 µg/mL
  MIC Staphylococcus aureus SMITH (GC 4536): >64 µg/mL
  MIC Staphylococcus aureus-SMITH (GC 4536): >64 µg/mL
Staphylococcus sp.
  MIC Coagulase Negative Staphylococcus (GC 4537): >64 µg/mL
  MIC Coagulase Negative Staphylococcus (GC 4538): >64 µg/mL
Staphylococcus sp.; strain GC 4547
  MIC Coagulase Negative Staphylococcus (GC 4547): >64 µg/mL
Enterococcus sp.; Enterococcus faecalis (GC 2242), broth dilution, 18 hours at 35° C.
  MIC Enterococcus faecalis (GC 2242): >64 µg/mL
Enterococcus sp.
  MIC Enterococcus faecalis (ATCC 29212): >64 µg/mL
  MIC Enterococcus faecalis (GC 4552): >64 µg/mL
Enterococcus sp.; strain GC 2242
  MIC Enterococcus faecalis (GC 2242): >64 µg/mL
Escherichia coli
  MIC Escherichia coli (GC 4559): >64 µg/mL
Escherichia coli; strain GC 4560
  MIC Escherichia coli (GC 4560): 8 µg/mL (≈ 5.74 µM)
